From patent EP0380554B1, “VASOACTIVE PEPTIDES” (Ferring AB, priority 1987, dated 1993)

System: anaesthetised Sprague Dawley rats
Experiment: Blood pressure test (4-point test against the standard AVP)
Assay type: in vivo
Conditions: result in words; for potency in respect of blood pressure increase: maximal blood pressure increase after intravenous injections, rats previously treated with dibenamine, related to standard AVP, compared with known derivatives 2 and 3; for specificity (ratio of potency blood pressure/potency antidiuresis, BP/AD): ratio of blood pressure potency to antidiuretic potency, compared with known compounds 1, 2 and 3; for length of the effect (index of persistence, I.P.): duration of the blood pressure effect in relation to standard AVP, compared with known substances 1, 2 and 3
Source text: Vasotocin derivatives according to the invention have been tested for potency of both blood pressure and antidiuretic activity in a so-called 4-point test, i.e. the activity of the test substances has been related to a standard preparation (AVP = arginine-vasopressin), and the effects of two dose levels for each substance have been analysed. In addition, two known pressor-specific analogs (VT derivatives) have been tested for a comparison, namely 1-mpa-2-Phe-8-Orn-VT (mpa = 3-mercaptopropionyl) (Huguenin, R.L., Boissonnas, R.A., 1966. Helv. Chim. Acta, 49, 711), and 2-Phe-8-Orn-VT (SE-332993, Sandoz).
Blood pressure tests were carried out on anaesthetised Sprague Dawley rats (about 250 g), previously treated with dibenamine (Dekanski, J., 1952. Br. J. Pharmacol. 7, 567). Maximal blood pressure increase after intravenous injections of peptide was used as a measure of the effect, expressed as intensity.
In addition to potency determination based on effect intensity, a measure of the length of the effect has been stated (index of persistence (I.P.), Pli ? ka, V., 1966. Arzheim. Forsch. 16, 886). This dimensionless factor is a measure of the effect duration of the respective analog in relation to the standard AVP.
In these two tests, a comparison was made between the effects of the respective derivative and the effect of a standard preparation, AVP, and potency was determined with the aid of a 4-point test and is indicated in international units per milligram (IU/mg) (Stürmer, E., i: Handbook of Experimental Pharmacology, 1966, Vol 23, pp 130-189).

| Substance | potency in respect of blood pressure increase | specificity (ratio of potency blood pressure/potency antidiuresis, BP/AD) | length of the effect (index of persistence, I.P.) |
| --- | --- | --- | --- |
| 1-Hmp-2-Phe-8-Orn-VT [compound 4] | very high potency | equivalent or higher specificity | – |
| Gly^o-1-Hmp-2-Phe-8-Orn-VT [compound 7] | surprisingly high blood pressure potency | adequate specificity | considerably prolonged effect |
| 1-Hmp-2-Phe-8-Orn(Ala)-VT [compound 6] | surprisingly high blood pressure potency | adequate specificity | considerably prolonged effect |
| 1-Hmp-2-Phe-8-Dab-VT [compound 5] | very high potency | equivalent or higher specificity | – |
